Results reported in patent US12371426B2, “Pyridazine derivatives as SMARCA2/4 degraders” (Aurigene Discovery Technologies Limited, priority 2018, dated 2025).

Key:
Format in all cases: cell-based
NCI-H929 cells = assay: Anti proliferative activity in NCI-H929 cell line by Cell Titer Glo assay; conditions: Homo sapiens, 72 h, 3 days compound incubation, CellTiter Glo, read-out: Anti-proliferative activity IC50 group (NCI-H929 cells)
Procedure: (§1) Determination of Anti Proliferative Activity of Compounds in NCI-H929 and NCI-H838 Cell Lines by Cell Titer Glo® (promega) assay:
(§2) NCI-H929 (ATCC CRL-9068) or NCI-H838 (ATCC CRL-5844) cells were seeded in 96 well plate flat black clear bottom plates (Corning, Cat. No 3904) using complete RPMI-1640 media. Next day, compounds listed in the present invention were added to cells from 10 mM stocks made in DMSO (Sigma Cat no. D2650). Each concentration of compound was tested in triplicate with DMSO concentration at a final percentage not exceeding 0.3 in the cells. After the compound incubation (3 days for H929 and 8 days for H838) assay was terminated using 50 μl of CellTiter Glo® reagent (Promega, Cat. no G7572). CellTiter Glo® Luminescent reagent determines the number of viable cells based on quantitation of ATP present which is an indicator of cell number and metabolic activity. Luminescence readings were taken in Victor-3 instrument. Percent inhibition of proliferation was calculated using formula, % inhibition=100−(luminescence value of test/luminescence value of DMSO control)*100. DMSO control (0%)=Cells in complete media with DMSO; blank=Media alone containing DMSO. IC50 was calculated using graph pad prism software.
(§3) Herein group “A” refers to IC50 value lower than 1 μM, “B” refers to IC50 value between 1-10 μM (both inclusive) and “C” refers to IC50 value higher than 10 μM or less than 50% activity at 10 μM.

SMARCA2 = SMARCA2 (Homo sapiens, UniProt P51531); assay: SMARCA2 degradation in H929 cells by Western blot; parameters: endogenous in cells; conditions: 16 hours
SMARCA2, sequence (P51531 whole entry): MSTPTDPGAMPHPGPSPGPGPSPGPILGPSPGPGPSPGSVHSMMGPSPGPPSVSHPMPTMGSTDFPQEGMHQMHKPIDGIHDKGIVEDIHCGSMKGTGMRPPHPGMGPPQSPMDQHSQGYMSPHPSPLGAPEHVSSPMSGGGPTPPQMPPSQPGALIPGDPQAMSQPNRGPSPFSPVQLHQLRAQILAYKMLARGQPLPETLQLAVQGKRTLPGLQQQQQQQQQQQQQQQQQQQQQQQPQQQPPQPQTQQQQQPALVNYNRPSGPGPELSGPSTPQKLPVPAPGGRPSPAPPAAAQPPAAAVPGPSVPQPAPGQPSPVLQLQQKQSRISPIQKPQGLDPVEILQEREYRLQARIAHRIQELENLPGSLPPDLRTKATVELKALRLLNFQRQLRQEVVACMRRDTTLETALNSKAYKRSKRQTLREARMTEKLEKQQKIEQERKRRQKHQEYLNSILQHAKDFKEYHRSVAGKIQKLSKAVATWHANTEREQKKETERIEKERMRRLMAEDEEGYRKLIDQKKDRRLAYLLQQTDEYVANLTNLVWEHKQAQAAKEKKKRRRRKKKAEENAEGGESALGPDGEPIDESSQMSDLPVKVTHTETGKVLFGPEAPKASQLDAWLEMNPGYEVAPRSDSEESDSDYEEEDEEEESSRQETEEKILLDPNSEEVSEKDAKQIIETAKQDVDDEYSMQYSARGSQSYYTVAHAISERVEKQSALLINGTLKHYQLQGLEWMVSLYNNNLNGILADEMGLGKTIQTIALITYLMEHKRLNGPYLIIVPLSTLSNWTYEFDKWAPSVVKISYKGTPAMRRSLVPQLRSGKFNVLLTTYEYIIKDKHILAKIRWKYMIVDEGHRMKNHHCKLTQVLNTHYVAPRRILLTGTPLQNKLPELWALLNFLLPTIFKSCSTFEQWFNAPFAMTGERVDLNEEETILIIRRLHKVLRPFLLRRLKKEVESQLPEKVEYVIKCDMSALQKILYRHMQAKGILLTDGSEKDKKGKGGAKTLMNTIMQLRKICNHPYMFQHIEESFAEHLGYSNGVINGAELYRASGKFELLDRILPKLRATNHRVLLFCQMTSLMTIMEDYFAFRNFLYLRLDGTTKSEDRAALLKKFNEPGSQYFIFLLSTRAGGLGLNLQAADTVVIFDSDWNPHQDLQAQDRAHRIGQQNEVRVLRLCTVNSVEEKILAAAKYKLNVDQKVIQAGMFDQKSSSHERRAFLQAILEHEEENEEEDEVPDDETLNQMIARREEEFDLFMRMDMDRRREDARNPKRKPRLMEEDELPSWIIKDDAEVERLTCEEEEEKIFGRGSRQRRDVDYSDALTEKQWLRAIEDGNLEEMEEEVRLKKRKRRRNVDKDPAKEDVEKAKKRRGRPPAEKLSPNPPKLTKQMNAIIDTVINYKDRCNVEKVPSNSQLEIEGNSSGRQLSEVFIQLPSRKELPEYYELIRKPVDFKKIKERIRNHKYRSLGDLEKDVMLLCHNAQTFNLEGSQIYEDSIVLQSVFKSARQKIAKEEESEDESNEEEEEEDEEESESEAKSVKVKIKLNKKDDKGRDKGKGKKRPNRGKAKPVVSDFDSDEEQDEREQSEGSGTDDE
Procedure: (§4) Determination of SMARCA2 and SMARCA4 Degradation in H929 Cells by Western Blot:
(§5) NCI-H929 (ATCC CRL-9068) was plated in 6 well plates using complete RPMI-1640 media. Next day, compounds of present invention were added to cells from 10 mM stocks made in DMSO (Sigma Cat no. D2650). Each concentration of compound was tested with DMSO not exceeding final percentage of 0.3 in the cells. Cells were incubated with the compound for 16 hours followed by harvesting with 1× RIPA lysis buffer (Thermo Fischer, catalogue number #89900) containing protease inhibitor cocktail (Sigma catalogue number #P-8340). Equal amount of protein was loaded on SDS PAGE gel for electrophoresis. Western blot was carried out for detection of either SMARCA2 (Cell signaling technologies, catalogue number #11966) or SMARCA4 antibody (Cell signaling technologies, catalogue number #49360). Beta Actin (Santa Cruz, catalogue number #69879) was used as loading control. Percentage of SMARCA2 or SMARCA4 degradation was calculated using formula % Degradation=100−(normalized band intensity in treated sample/normalized band intensity in DMSO sample)*100.
(§6) Selected compounds of the present invention were screened in the above mentioned assay procedures for determination of % SMARCA2 and SMARCA4 degradation 100 nM and the results are summarized in below table 30.

SMARCA4 = target: T1, SMARCA4 (Homo sapiens, UniProt P51532); assay: SMARCA4 degradation in H929 cells by Western blot; conditions: 16 hours; for SMARCA4 percent degradation at 0.1 µM: NCI-H929, 100 nM
T1 construct: endogenous in cells; host or cells: NCI-H929 (ATCC CRL-9068)
T1 sequence (P51532 whole entry): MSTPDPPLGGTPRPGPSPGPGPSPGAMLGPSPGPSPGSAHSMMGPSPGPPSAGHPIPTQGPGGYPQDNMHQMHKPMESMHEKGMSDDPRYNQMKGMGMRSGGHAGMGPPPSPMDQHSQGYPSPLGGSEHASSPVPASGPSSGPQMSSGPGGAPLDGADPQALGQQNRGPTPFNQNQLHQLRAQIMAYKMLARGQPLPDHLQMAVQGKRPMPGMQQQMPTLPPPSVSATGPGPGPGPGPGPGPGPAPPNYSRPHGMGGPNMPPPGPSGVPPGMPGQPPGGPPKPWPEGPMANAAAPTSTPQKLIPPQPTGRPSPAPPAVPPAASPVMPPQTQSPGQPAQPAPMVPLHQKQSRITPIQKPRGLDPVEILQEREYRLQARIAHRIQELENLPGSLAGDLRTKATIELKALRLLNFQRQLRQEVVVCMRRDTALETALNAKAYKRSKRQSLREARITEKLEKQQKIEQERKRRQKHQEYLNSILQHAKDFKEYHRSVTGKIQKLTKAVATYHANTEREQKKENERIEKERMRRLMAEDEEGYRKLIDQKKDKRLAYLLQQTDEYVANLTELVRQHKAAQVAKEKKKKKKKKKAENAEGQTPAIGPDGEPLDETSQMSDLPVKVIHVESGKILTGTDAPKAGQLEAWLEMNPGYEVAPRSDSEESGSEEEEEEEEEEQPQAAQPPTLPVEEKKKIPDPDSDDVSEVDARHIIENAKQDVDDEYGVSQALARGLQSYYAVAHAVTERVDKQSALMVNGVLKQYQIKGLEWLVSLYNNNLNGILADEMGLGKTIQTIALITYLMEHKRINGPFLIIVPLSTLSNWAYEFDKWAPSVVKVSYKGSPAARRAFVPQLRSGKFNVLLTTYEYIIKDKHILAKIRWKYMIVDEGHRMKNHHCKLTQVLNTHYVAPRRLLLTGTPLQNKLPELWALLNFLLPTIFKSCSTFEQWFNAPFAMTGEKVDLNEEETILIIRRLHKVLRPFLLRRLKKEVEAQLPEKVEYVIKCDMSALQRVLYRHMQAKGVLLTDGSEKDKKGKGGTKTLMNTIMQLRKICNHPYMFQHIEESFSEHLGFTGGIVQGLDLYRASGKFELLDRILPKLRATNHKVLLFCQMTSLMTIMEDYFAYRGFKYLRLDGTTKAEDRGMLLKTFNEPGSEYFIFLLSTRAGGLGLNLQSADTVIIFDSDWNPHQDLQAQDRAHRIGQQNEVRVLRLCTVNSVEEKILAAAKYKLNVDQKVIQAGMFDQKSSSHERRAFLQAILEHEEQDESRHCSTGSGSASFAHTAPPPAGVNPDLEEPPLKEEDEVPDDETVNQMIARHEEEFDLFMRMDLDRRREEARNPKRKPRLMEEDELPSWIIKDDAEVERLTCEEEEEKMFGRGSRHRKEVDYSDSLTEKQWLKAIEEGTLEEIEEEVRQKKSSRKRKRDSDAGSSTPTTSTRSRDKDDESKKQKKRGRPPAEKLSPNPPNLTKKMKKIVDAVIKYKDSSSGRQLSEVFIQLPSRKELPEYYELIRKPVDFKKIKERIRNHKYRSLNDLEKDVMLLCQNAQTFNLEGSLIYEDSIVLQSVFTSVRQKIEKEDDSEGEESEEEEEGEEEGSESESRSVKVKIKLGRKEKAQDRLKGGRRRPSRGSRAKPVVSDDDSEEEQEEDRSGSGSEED
Procedure: as §4, §5, §6

NCI-H838 cells = assay: Anti proliferative activity in NCI-H838 cell line by Cell Titer Glo assay; conditions: Homo sapiens, 192 h, 8 days compound incubation, CellTiter Glo, read-out: Anti-proliferative activity IC50 group (NCI-H838 cells)
Procedure: as §1, §2, §3

Structure (SMILES) | IC50 (NCI-H929 cells) | SMARCA2 Percent degradation @ 100 nM (SMARCA2) | SMARCA4 percent degradation at 0.1 µM (SMARCA4) | SMARCA4 Percent degradation @ 100 nM (SMARCA4) | IC50 (NCI-H838 cells)
Cc1ncsc1-c1ccc([C@H](C)NC(=O)[C@@H]2C[C@@H](O)CN2C(=O)[C@@H](NC(=O)C(C)N2CCN(c3cc(-c4ccccc4O)nnc3N)CC2)C(C)(C)C)cc1 (single isomer, unassigned) [Compound 57] | < 1 µM | 79.6% |  |  | 
Cc1ncsc1-c1ccc([C@H](C)NC(=O)[C@@H]2C[C@@H](O)CN2C(=O)[C@@H](NC(=O)C(C)C2CCN(c3cc(-c4cccc(F)c4O)nnc3N)CC2)C(C)(C)C)cc1 (single isomer, unassigned) [Compound 84] |  | 58% |  |  | 
Cc1ncsc1-c1ccc([C@H](C)NC(=O)[C@@H]2C[C@@H](O)CN2C(=O)[C@@H](NC(=O)CCCCCCC(=O)N2CCN(c3cc(-c4ccccc4O)nnc3N)CC2)C(C)(C)C)cc1 [Compound 37] | < 1 µM | 96% |  |  | 
Cc1ncsc1-c1ccc([C@H](C)NC(=O)[C@@H]2C[C@@H](O)CN2C(=O)[C@@H](NC(=O)CCCCCCCCCC(=O)N2CCN(c3cc(-c4ccccc4O)nnc3N)CC2)C(C)(C)C)cc1 [Compound 38] | 1 to 10 µM | 99% | 17% |  | 
Cc1ncsc1-c1ccc(CNC(=O)[C@@H]2C[C@@H](O)CN2C(=O)[C@@H](NC(=O)CN2CCN(c3cc(-c4ccccc4O)nnc3N)CC2)C(C)(C)C)cc1 [Compound 39] | < 1 µM | 97% |  |  | 
Nc1nnc(-c2ccccc2O)cc1N1CCN(CC(=O)Nc2cccc3c2C(=O)N(C2CCC(=O)NC2=O)C3=O)CC1 (stereo not shown) [Compound 41] |  | 64% | 60% |  | 
Cc1ncsc1-c1ccc([C@H](C)NC(=O)[C@@H]2C[C@@H](O)CN2C(=O)[C@@H](NC(=O)CN2CCN(c3cc(-c4ccccc4F)nnc3N)CC2)C(C)(C)C)cc1 [Compound 44] | 1 to 10 µM | 93% | 82% |  | 
CC(=O)O[C@@H]1C[C@@H](C(=O)N[C@@H](C)c2ccc(-c3scnc3C)cc2)N(C(=O)[C@@H](NC(=O)CN2CCN(c3cc(-c4ccccc4O)nnc3N)CC2)C(C)(C)C)C1 [Compound 47, (3R,5S)-1-((S)-2-(2-(4-(3-amino-6-(2-hydroxyphenyl)pyridazin-4-yl)piperazin-1-yl)acetamido)-3,3-dimethylbutanoyl)-5-(((S)-1-(4-(4-methylthiazol-5-yl)phenyl)ethyl)carbamoyl)pyrrolidin-3-yl acetate] |  | 87% |  | 87% | 
CC(=O)O[C@@H]1C[C@@H](C(=O)NCc2ccc(-c3scnc3C)cc2)N(C(=O)[C@@H](NC(=O)CN2CCN(c3cc(-c4ccccc4O)nnc3N)CC2)C(C)(C)C)C1 [Compound 48, (3R,5S)-1-((S)-2-(2-(4-(3-amino-6-(2-hydroxyphenyl)pyridazin-4-yl)piperazin-1-yl)acetamido)-3,3-dimethylbutanoyl)-5-((4-(4-methylthiazol-5-yl)benzyl)carbamoyl)pyrrolidin-3-yl acetate] |  | 5.4% |  | 28% | 
Cc1ncsc1-c1ccc([C@H](C)NC(=O)[C@@H]2C[C@@H](O)CN2C(=O)[C@@H](NC(=O)CC2(O)CCN(c3cc(-c4ccccc4O)nnc3N)CC2)C(C)(C)C)cc1 [Compound 55, (2S,4R)-1-((S)-2-(2-(1-(3-amino-6-(2-hydroxyphenyl)pyridazin-4-yl)-4-hydroxypiperidin-4-yl)acetamido)-3,3-dimethylbutanoyl)-4-hydroxy-N—((S)-1-(4-(4-methylthiazol-5-yl)phenyl)ethyl)pyrrolidine-2-carboxamide] | < 1 µM |  |  |  | < 1 µM
Cc1ncsc1-c1ccc([C@H](C)NC(=O)[C@@H]2C[C@@H](O)CN2C(=O)[C@@H](NC(=O)C(C)N2CCN(c3cc(-c4ccccc4O)nnc3N)CC2)C(C)(C)C)cc1 (stereo partly drawn) [Compound 56, (2S,4R)-1-((2S)-2-(2-(4-(3-amino-6-(2-hydroxyphenyl)pyridazin-4-yl)piperazin-1-yl)propanamido)-3,3-dimethylbutanoyl)-4-hydroxy-N—((S)-1-(4-(4-methylthiazol-5-yl)phenyl)ethyl)pyrrolidine-2-carboxamide] | < 1 µM | 99% | 100% |  | 
Cc1ncsc1-c1ccc(C(NC(=O)[C@@H]2C[C@@H](O)CN2C(=O)[C@@H](NC(=O)CC2CCN(c3cc(-c4cccc(F)c4O)nnc3N)CC2)C(C)(C)C)C(F)(F)F)cc1 (stereo partly drawn) [Compound 76, (2S,4R)-1-((S)-2-(2-(1-(3-amino-6-(3-fluoro-2-hydroxyphenyl)pyridazin-4-yl)piperidin-4-yl)acetamido)-3,3-dimethylbutanoyl)-4-hydroxy-N-(2,2,2-trifluoro-1-(4-(4-methylthiazol-5-yl)phenyl)ethyl)pyrrolidine-2-carboxamide] |  | 90% | 12% |  | 
Cc1ncsc1-c1ccc([C@H](C)NC(=O)[C@@H]2C[C@@H](O)CN2C(=O)[C@@H](NC(=O)CN2CCN(c3cc(-c4ccccc4O)nnc3N)CC2)C(C)C)cc1 [Compound 79, (2S,4R)-1-((2-(4-(3-amino-6-(2-hydroxyphenyl)pyridazin-4-yl)piperazin-1-yl)acetyl)-L-valyl)-4-hydroxy-N—((S)-1-(4-(4-methylthiazol-5-yl)phenyl)ethyl)pyrrolidine-2-carboxamide] | < 1 µM | 99% | 99% |  | 
Cc1ncsc1-c1ccc([C@H](C)NC(=O)[C@@H]2C[C@@H](O)CN2C(=O)[C@@H](NC(=O)C(C)(C)N2CCN(c3cc(-c4ccccc4O)nnc3N)CC2)C(C)(C)C)cc1 [Compound 87] | < 1 µM | 83% | 93% |  | 
Cc1ncsc1-c1ccc([C@H](C)NC(=O)[C@@H]2C[C@@H](O)CN2C(=O)[C@@H](NC(=O)CC2CCN(c3cc(-c4cccc(F)c4O)nnc3N)CC2)C(C)(C)C)cc1 [Compound 98] | < 1 µM | 88% | 99% |  | 
Cc1ncsc1-c1ccc([C@H](C)NC(=O)[C@@H]2C[C@@H](O)CN2C(=O)[C@@H](NC(=O)CCCCCCCCC(=O)N2CCN(c3cc(-c4ccccc4O)nnc3N)CC2)C(C)(C)C)cc1 [Compound 109] | < 1 µM | 100% | 38% |  | 
CO[C@@H]1C[C@@H](C(=O)N[C@@H](C)c2ccc(-c3scnc3C)cc2)N(C(=O)[C@@H](NC(=O)CN2CCN(c3cc(-c4ccccc4O)nnc3N)CC2)C(C)(C)C)C1 [Compound 117] | 1 to 10 µM | 45.4% | 47% |  | 
Cc1ncsc1-c1ccc([C@H](C)NC(=O)[C@@H]2C[C@@H](O)CN2C(=O)[C@H](C)NC(=O)CN2CCN(c3cc(-c4ccccc4O)nnc3N)CC2)cc1 [Compound 118] | > 10 µM | 20.2% |  |  | 
